Data on eleven compounds can be found in ChEMBL document CHEMBL1201862, “PubChem BioAssay data set” (2004).

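How tested: cells in 96-well plates exposed to compound for 48 hours at five concentrations. GI50 is the concentration that inhibits growth by half.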 Activity calls are given as the source filed them. Rule as the data show it: active = GI50 up to about 1.1 µM and inactive = higher. A value given as a limit tells only on which side of the number the result lay.

Among the test systems are ACHN; HL-60; HOP-62; IGROV-1; KM12; M14; MCF7; MDA-MB-435; MDA-N; Malme-3M; NCI/ADR-RES; SF-268; SF-539; SK-MEL-2; SK-MEL-5; SNB-75; U-251; UACC-62.
Experiment in all cases: NCI tumour cell line growth inhibition, 48 h

For the compound `COC12C=CC(C=C1C#N)CC2.COC12C=CC(CC1)CC2=O` (stereo unspecified), the GI50 in the experiment with ACHN, in the experiment on HL-60, in the experiment with HOP-62, with IGROV-1, with KM12 and in the experiment with M14 was > 100 µM (inactive) throughout. For the same compound, the GI50 with MCF7, in the experiment on MDA-MB-435, in the experiment on MDA-N, in the experiment on Malme-3M, in the experiment on NCI/ADR-RES and with SF-268 was > 100 µM (inactive) throughout. Further, the GI50 in the experiment with SF-539 was > 100 µM (inactive); in the experiment with SK-MEL-2, > 100 µM (inactive); in the experiment with SK-MEL-5, > 100 µM (inactive); in the experiment on SNB-75 it was 67.8 µM (inactive); in the experiment on U-251 it was > 100 µM (inactive); in the experiment with UACC-62, > 100 µM (inactive).

For `CS(=O)(=O)NC12CCC(c3ccccc31)c1ccccc12`, the GI50 in the experiment on ACHN, with HL-60, in the experiment on HOP-62, with IGROV-1, in the experiment with KM12 and in the experiment with M14 was > 100 µM (inactive) each time. In addition, the GI50 in the experiment with MCF7, in the experiment on MDA-MB-435, with MDA-N, in the experiment with Malme-3M, in the experiment with NCI/ADR-RES and with SF-268 was > 100 µM (inactive) each time. Further, the GI50 in the experiment on SF-539, in the experiment with SK-MEL-2, with SK-MEL-5, in the experiment with SNB-75, in the experiment on U-251 and with UACC-62 was > 100 µM (inactive) each time.

For the compound `Cc1nn(-c2ccccc2)c2c1C(c1cc3ccccc3nc1Cl)NC(=O)N2` (stereo unspecified), the GI50 with ACHN is 17.7 µM (inactive); with HL-60, 5.81 µM (inactive); in the experiment with HOP-62 it was 20.4 µM (inactive); in the experiment with IGROV-1, 11 µM (inactive); in the experiment with KM12 it was 21.2 µM (inactive); with M14 it was 19.6 µM (inactive). Besides, the GI50 is 25.3 µM (inactive) with MCF7; 23.9 µM (inactive) with MDA-MB-435; 18.5 µM (inactive) in the experiment with MDA-N; 20.8 µM (inactive) in the experiment on Malme-3M; 28.4 µM (inactive) in the experiment on NCI/ADR-RES; 27.4 µM (inactive) in the experiment on SF-268. Besides, the GI50 in the experiment on SF-539 is 19.9 µM (inactive); in the experiment with SK-MEL-2 it was 14.3 µM (inactive); with SK-MEL-5 it was 17 µM (inactive); in the experiment on SNB-75, 18.9 µM (inactive); in the experiment with U-251, 17.1 µM (inactive); in the experiment with UACC-62, 19 µM (inactive).

For the compound `CC1(C)CC(=O)c2c(-c3ccc(Cl)cc3)c(C#N)c(=S)n(C3OC(CO)C(O)C(O)C3O)c2C1` (stereo unspecified), the GI50 in the experiment on ACHN was 39 µM (inactive); with HL-60 it was 20.2 µM (inactive); in the experiment with HOP-62, 69.5 µM (inactive); in the experiment on IGROV-1, 56.8 µM (inactive); in the experiment on KM12, 37.3 µM (inactive); in the experiment on M14, 45.7 µM (inactive). Also, the GI50 is 33.7 µM (inactive) in the experiment with MCF7; 27.9 µM (inactive) with MDA-MB-435; 19.1 µM (inactive) in the experiment on MDA-N; 31 µM (inactive) in the experiment on Malme-3M; 34.4 µM (inactive) in the experiment with NCI/ADR-RES; 48.3 µM (inactive) with SF-268. Moreover, the GI50 was 25.4 µM (inactive) with SF-539; 19 µM (inactive) in the experiment on SK-MEL-2; 15.2 µM (inactive) with SK-MEL-5; 25.3 µM (inactive) with SNB-75; 21.7 µM (inactive) in the experiment with U-251; 16.8 µM (inactive) in the experiment with UACC-62.

Regarding `O=c1[nH]c2ccccc2c(=O)c2cc3ccccc3cc12`, the GI50 was 33.7 µM (inactive) with ACHN; 40 µM (inactive) in the experiment on HL-60; 10.4 µM (inactive) in the experiment with HOP-62; 48.2 µM (inactive) in the experiment with IGROV-1; 97.3 µM (inactive) in the experiment on KM12; 45.3 µM (inactive) in the experiment on M14. Also, the GI50 was > 100 µM (inactive) in the experiment on MCF7; > 100 µM (inactive) with MDA-MB-435; > 100 µM (inactive) in the experiment on MDA-N; 45.6 µM (inactive) in the experiment with Malme-3M; 26.6 µM (inactive) in the experiment with NCI/ADR-RES; 3.42 µM (inactive) in the experiment on SF-268. The GI50 was 20.9 µM (inactive) with SF-539; 22.5 µM (inactive) in the experiment with SK-MEL-2; 49.2 µM (inactive) in the experiment with SK-MEL-5; 3.92 µM (inactive) in the experiment on SNB-75; 6.28 µM (inactive) in the experiment on U-251; 41.6 µM (inactive) with UACC-62.

With `COC(=O)CCc1ccc2c(c1)CC1(Cc3ccccc3C1)C2`, the GI50 with ACHN is > 100 µM (inactive); with HL-60, 51.9 µM (inactive); in the experiment with HOP-62 it was > 100 µM (inactive); in the experiment with IGROV-1, > 100 µM (inactive); with KM12, > 100 µM (inactive); with M14 it was > 100 µM (inactive). The GI50 with MCF7, in the experiment on MDA-MB-435, in the experiment on MDA-N, in the experiment on Malme-3M, with NCI/ADR-RES and in the experiment on SF-539 was > 100 µM (inactive) in each case. In addition, the GI50 in the experiment on SK-MEL-2 was 14.3 µM (inactive); in the experiment on SK-MEL-5 it was 33.6 µM (inactive); with SNB-75, < 0.01 µM (active); in the experiment with U-251, > 100 µM (inactive); in the experiment with UACC-62 it was 57.3 µM (inactive).

Take `CCNCC(=O)Nc1ccc2c(c1)C(=O)c1ccc(NC(=O)CNCC)cc1C2=O`: the GI50 in the experiment with ACHN is 1.92 µM (inactive); in the experiment with HL-60 it was 3.01 µM (inactive); in the experiment with HOP-62 it was 5.75 µM (inactive); in the experiment on IGROV-1 it was 5.51 µM (inactive); in the experiment on KM12 it was 11.7 µM (inactive); in the experiment with M14, 3.5 µM (inactive). The GI50 in the experiment with MCF7 is 1.64 µM (inactive); in the experiment on MDA-MB-435, 2.27 µM (inactive); in the experiment with MDA-N, 4.59 µM (inactive); in the experiment on Malme-3M, 15.5 µM (inactive); in the experiment with NCI/ADR-RES it was 6.08 µM (inactive); with SF-268, 3.27 µM (inactive). The GI50 in the experiment on SF-539 is 4.97 µM (inactive); in the experiment with SK-MEL-2, 15.9 µM (inactive); in the experiment with SK-MEL-5, 36.4 µM (inactive); with SNB-75, 1.41 µM (inactive); in the experiment on U-251, 1.72 µM (inactive); with UACC-62 it was 3.75 µM (inactive).

With `CC(=O)SC(C[N+](=O)[O-])c1ccc2c(c1)OCO2` (stereo unspecified), the GI50 in the experiment with ACHN was 8.81 µM (inactive); in the experiment on HL-60, 1.97 µM (inactive); in the experiment on HOP-62, 17.4 µM (inactive); with IGROV-1, 5.2 µM (inactive); in the experiment with KM12, 4.75 µM (inactive); in the experiment with M14, 5.9 µM (inactive). In addition, the GI50 with MCF7 is 3 µM (inactive); in the experiment with MDA-MB-435, 3.54 µM (inactive); in the experiment with MDA-N it was 2.1 µM (inactive); in the experiment on Malme-3M, 8.11 µM (inactive); in the experiment with NCI/ADR-RES, 11.6 µM (inactive); in the experiment with SF-268, 15.9 µM (inactive). Besides, the GI50 in the experiment with SF-539 is 2.37 µM (inactive); in the experiment on SK-MEL-2, 6.19 µM (inactive); in the experiment on SK-MEL-5, 6.95 µM (inactive); in the experiment with SNB-75 it was 9.59 µM (inactive); with U-251, 5.37 µM (inactive); in the experiment on UACC-62, 5.62 µM (inactive).

Regarding `O=c1cc(-c2ccccc2)oc2c(-c3cc(Cl)cc4c(=O)cc(-c5ccccc5)oc34)cc(Cl)cc12`, the GI50 was 16.2 µM (inactive) in the experiment with ACHN; 50.1 µM (inactive) with HL-60; 31 µM (inactive) in the experiment on HOP-62; 22.5 µM (inactive) in the experiment on IGROV-1; 20 µM (inactive) in the experiment with KM12; 27.7 µM (inactive) with M14. Also, the GI50 with MCF7 was 24.5 µM (inactive); with MDA-MB-435, 26.5 µM (inactive); with MDA-N, 17.3 µM (inactive); in the experiment with Malme-3M it was 27 µM (inactive); in the experiment on NCI/ADR-RES, 28.8 µM (inactive); in the experiment with SF-268, 32.8 µM (inactive). The GI50 with SF-539 is 17.8 µM (inactive); in the experiment on SK-MEL-2, 35.7 µM (inactive); in the experiment with SK-MEL-5 it was 15.5 µM (inactive); in the experiment on SNB-75, 4.49 µM (inactive); in the experiment on U-251, 19 µM (inactive); in the experiment on UACC-62, 11.6 µM (inactive).

With `CC1(C)OC[C@@]2([C@@H]3CC[C@@H](C3)C2(C)C)N1O`, the GI50 in the experiment with ACHN, with HL-60, in the experiment with HOP-62, with IGROV-1, in the experiment with KM12 and with M14 was > 100 µM (inactive) each time. The GI50 is > 100 µM (inactive) in the experiment on MCF7; > 100 µM (inactive) in the experiment on MDA-MB-435; > 100 µM (inactive) with MDA-N; 28.8 µM (inactive) in the experiment with Malme-3M; > 100 µM (inactive) in the experiment on NCI/ADR-RES; > 100 µM (inactive) in the experiment with SF-268. The GI50 with SF-539 is > 100 µM (inactive); in the experiment with SK-MEL-2 it was > 100 µM (inactive); in the experiment with SK-MEL-5, > 100 µM (inactive); in the experiment on SNB-75, > 100 µM (inactive); in the experiment on U-251, 88.9 µM (inactive); in the experiment with UACC-62, > 100 µM (inactive).

In the case of `CNc1ccc(OC)cc1S(=O)(=O)c1ccccc1[N+](=O)[O-]`, the GI50 in the experiment on ACHN, with HL-60, in the experiment with HOP-62, in the experiment on IGROV-1, in the experiment on M14 and in the experiment on MCF7 was > 100 µM (inactive) each time. Moreover, the GI50 with MDA-MB-435 is > 100 µM (inactive); with MDA-N, > 100 µM (inactive); in the experiment on Malme-3M, 82.8 µM (inactive); in the experiment with NCI/ADR-RES, 69.8 µM (inactive); in the experiment with SF-268 it was > 100 µM (inactive); in the experiment with SF-539 it was > 100 µM (inactive). Further, the GI50 is > 100 µM (inactive) in the experiment with SK-MEL-2; 51.3 µM (inactive) in the experiment on SK-MEL-5; > 100 µM (inactive) in the experiment on SNB-75; > 100 µM (inactive) in the experiment with U-251; > 100 µM (inactive) in the experiment with UACC-62.
